Reference: ChEMBL document CHEMBL1158395, “Discovery of novel acetanilide derivatives as potent and selective beta3-adrenergic receptor agonists” (Eur J Med Chem, 2009)

Assays:
[1] = target: Beta-1 adrenergic receptor (Homo sapiens, UniProt P08588)
Description: Agonist activity at human cloned adrenergic beta-1 receptor expressed in CHO cells assessed as increase in cAMP production after 2 days by radioimmunoassay

[2] = target: Beta-2 adrenergic receptor (Homo sapiens, UniProt P07550)
Description: Agonist activity at human cloned adrenergic beta2 receptor expressed in CHO cells assessed as increase in cAMP production after 2 days by radioimmunoassay

[3] = target: Beta-3 adrenergic receptor (Homo sapiens, UniProt P13945); experiment: Agonist activity at human cloned adrenergic beta3 receptor expressed in CHO cells assessed as increase in cAMP production after 2 days by radioimmunoassay; assay type: functional, cell-based
Sequence of Beta-3 adrenergic receptor (P13945 whole entry): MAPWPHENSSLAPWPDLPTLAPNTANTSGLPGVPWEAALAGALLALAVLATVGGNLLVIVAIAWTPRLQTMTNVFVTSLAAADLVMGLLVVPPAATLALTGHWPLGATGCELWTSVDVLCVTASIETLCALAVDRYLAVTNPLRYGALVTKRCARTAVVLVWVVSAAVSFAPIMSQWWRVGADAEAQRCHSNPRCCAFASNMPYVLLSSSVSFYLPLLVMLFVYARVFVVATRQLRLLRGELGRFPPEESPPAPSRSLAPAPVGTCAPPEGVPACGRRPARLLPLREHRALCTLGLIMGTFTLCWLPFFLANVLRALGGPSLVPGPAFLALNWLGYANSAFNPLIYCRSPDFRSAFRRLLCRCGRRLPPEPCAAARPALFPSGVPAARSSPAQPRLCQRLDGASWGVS

[4] = system: Mus musculus; experiment: Hypoglycemic activity in diabetic kk mouse assessed as reduction in plasma glucose levels at 30 mg/kg, po administered for 4 days measured after 15 to 18 hrs by glucose oxidase method; assay type: functional; design: scale not given: the % may be the effect or the level left

Sequence of Beta-1 adrenergic receptor (P08588 whole entry): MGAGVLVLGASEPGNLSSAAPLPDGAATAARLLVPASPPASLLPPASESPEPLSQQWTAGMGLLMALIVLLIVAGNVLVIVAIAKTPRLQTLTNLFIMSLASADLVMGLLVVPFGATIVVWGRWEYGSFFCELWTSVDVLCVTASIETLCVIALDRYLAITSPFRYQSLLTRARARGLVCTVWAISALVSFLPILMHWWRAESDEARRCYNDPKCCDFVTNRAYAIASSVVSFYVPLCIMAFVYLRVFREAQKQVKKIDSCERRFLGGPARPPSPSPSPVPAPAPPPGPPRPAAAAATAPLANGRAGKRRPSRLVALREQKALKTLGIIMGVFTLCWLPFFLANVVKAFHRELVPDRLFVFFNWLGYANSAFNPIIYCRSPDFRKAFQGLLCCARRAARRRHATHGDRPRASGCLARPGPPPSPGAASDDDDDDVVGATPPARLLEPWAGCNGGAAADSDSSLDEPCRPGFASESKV
Sequence of Beta-2 adrenergic receptor (P07550 whole entry): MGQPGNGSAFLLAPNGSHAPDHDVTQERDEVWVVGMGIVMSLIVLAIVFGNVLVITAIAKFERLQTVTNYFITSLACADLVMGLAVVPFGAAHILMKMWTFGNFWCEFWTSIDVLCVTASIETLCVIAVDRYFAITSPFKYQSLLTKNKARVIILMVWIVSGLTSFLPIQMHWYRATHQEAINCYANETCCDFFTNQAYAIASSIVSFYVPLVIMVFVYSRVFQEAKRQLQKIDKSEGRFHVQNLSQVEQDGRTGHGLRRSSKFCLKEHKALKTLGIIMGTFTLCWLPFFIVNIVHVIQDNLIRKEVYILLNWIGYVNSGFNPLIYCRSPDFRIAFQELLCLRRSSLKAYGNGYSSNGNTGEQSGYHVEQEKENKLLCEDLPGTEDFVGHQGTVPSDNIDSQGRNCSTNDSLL

SMILES	EC50 [1]	EC50 [2]	EC50 [3]	Activity [4]
O=C(Cc1cccs1)Nc1ccc(CCNC[C@H](O)COc2ccc(O)cc2)cc1	550 nM	> 100000 nM	500 nM	
O=C(Nc1ccc(CCNC[C@H](O)COc2ccc(O)cc2)cc1)C(c1ccccc1)c1ccccc1	180 nM	> 100000 nM	120 nM	
O=C(Cc1ccsc1)Nc1ccc(CCNC[C@H](O)COc2ccc(O)cc2)cc1	490 nM	> 100000 nM	550 nM	
O=C(CC1C=Nc2ccccc21)Nc1ccc(CCNC[C@H](O)COc2ccc(O)cc2)cc1 (some centres not stated)	550 nM	> 100000 nM	490 nM	
O=C(Cc1ccc2ccccc2c1)Nc1ccc(CCNC[C@H](O)COc2ccc(O)cc2)cc1	150 nM	> 100000 nM	240 nM	
O=C(Cc1cccc(Cl)c1)Nc1ccc(CCNC[C@H](O)COc2ccc(O)cc2)cc1	83 nM	> 100000 nM	890 nM	
O=C(Cc1ccncc1)Nc1ccc(CCNC[C@H](O)COc2ccc(O)cc2)cc1	260 nM	> 100000 nM	520 nM	
O=C(Cc1cccnc1)Nc1ccc(CCNC[C@H](O)COc2ccc(O)cc2)cc1	910 nM	> 100000 nM	1500 nM	
O=C(Cc1cc2ccccc2cn1)Nc1ccc(CCNC[C@H](O)COc2ccc(O)cc2)cc1	350 nM	> 100000 nM	140 nM	
O=C(Cc1ccccc1Cl)Nc1ccc(CCNC[C@H](O)COc2ccc(O)cc2)cc1	720 nM	> 100000 nM	740 nM	
O=C(Cc1cccc2ccccc12)Nc1ccc(CCNC[C@H](O)COc2ccc(O)cc2)cc1	600 nM	> 100000 nM	470 nM	

The next lines start with results.

EC50 [1]	EC50 [2]	EC50 [3]	SMILES	Activity [4]
1600 nM	> 100000 nM	78 nM	O=S(=O)(Nc1ccc(CCNC[C@H](O)COc2ccc(O)cc2)cc1)c1ccccc1	
2700 nM	> 100000 nM	290 nM	O=C(Cc1ccccn1)Nc1ccc(CCNC[C@H](O)COc2ccc(O)cc2)cc1	32%
660 nM	> 100000 nM	960 nM	NC(C(=O)Nc1ccc(CCNC[C@H](O)COc2ccc(O)cc2)cc1)c1ccccc1 (some centres not stated)	
760 nM	> 100000 nM	1700 nM	O=C(Cc1ccccc1)Nc1ccc(CCNC[C@H](O)COc2ccc(O)cc2)cc1	
280 nM	> 100000 nM	1700 nM	COc1ccc(CC(=O)Nc2ccc(CCNC[C@H](O)COc3ccc(O)cc3)cc2)cc1	
590 nM	> 100000 nM	960 nM	O=C(Nc1ccc(CCNC[C@H](O)COc2ccc(O)cc2)cc1)C(O)c1ccccc1 (some centres not stated)	
1700 nM	> 100000 nM	650 nM	O=C(Cc1ccc2ccccc2n1)Nc1ccc(CCNC[C@H](O)COc2ccc(O)cc2)cc1	
3100 nM	> 100000 nM	83 nM	O=C(Cc1cnccn1)Nc1ccc(CCNC[C@H](O)COc2ccc(O)cc2)cc1	13%
960 nM	> 100000 nM	360 nM	COc1ccccc1CC(=O)Nc1ccc(CCNC[C@H](O)COc2ccc(O)cc2)cc1	
710 nM	> 100000 nM	560 nM	COc1cccc(CC(=O)Nc2ccc(CCNC[C@H](O)COc3ccc(O)cc3)cc2)c1	
> 100000 nM	> 100000 nM	110 nM	O=C(Cc1ncccn1)Nc1ccc(CCNC[C@H](O)COc2ccc(O)cc2)cc1	20%
190 nM	> 100000 nM	1200 nM	O=C(Cc1ccc(Cl)cc1)Nc1ccc(CCNC[C@H](O)COc2ccc(O)cc2)cc1	
